Test system: endophthalmitis
Test: Combination therapy treatment of severe endophthalmitis in a human subject (case report)
Type: in vivo
Conditions: initial regimen without cyclosporin A: intravitreal Vancomycin and Ceftazidime, then Ceftazidime, Vancomycin and Prednisolone eye drops every two hours; over the next two days
Description: A uniocular subject was diagnosed with severe endophthalmitis in their only functioning eye. […] The subject was treated with an aggressive treatment regimen of antibiotics (Intra Vitreal injection of Vancomycin and Ceftazidime) followed by Ceftazidime eye drops. Vancomycin eye drops and steroid Prednisolone eye drops every two hours.
Cyclosporin A (sold as […]® from Allergan, Inc.) was added to the treatment regimen and was administered prior to administering the antibiotic and steroid eye drops.
The Ceftriaxone was added to the regimen to increase the aggressiveness of the therapy with the goal of preventing or eliminating any traces of infection in the retina, which can result in irreversible blindness.

| SMILES | improvement of the subject |
| --- | --- |
| CC(C)(O/N=C(\C(=O)N[C@@H]1C(=O)N2C(C(=O)[O-])=C(C[n+]3ccccc3)CS[C@H]12)c1csc(N)n1)C(=O)O [Ceftazidime] | no improvement |
| C[C@]12C=CC(=O)C=C1CC[C@@H]1[C@@H]2[C@@H](O)C[C@@]2(C)[C@H]1CC[C@]2(O)C(=O)CO [Prednisolone] | no improvement |
| CN[C@H](CC(C)C)C(=O)N[C@H]1C(=O)N[C@@H](CC(N)=O)C(=O)N[C@H]2C(=O)N[C@H]3C(=O)N[C@H](C(=O)N[C@H](C(=O)O)c4cc(O)cc(O)c4-c4cc3ccc4O)[C@H](O)c3ccc(c(Cl)c3)Oc3cc2cc(c3O[C@@H]2O[C@H](CO)[C@@H](O)[C@H](O)[C@H]2O[C@H]2C[C@](C)(N)[C@H](O)[C@H](C)O2)Oc2ccc(cc2Cl)[C@H]1O [Vancomycin] | no improvement |
